# Test results as given in patent US20230241024A1, “METHODS OF TREATING METABOLIC DISORDERS” (Sunovion Pharmaceuticals Inc., priority 2021, published 2023).
# Columns and labels:
# [1] = system: lean male C57BL/6J mice; assay: Acute oral glucose tolerance test (OGTT), plasma glucose and insulin, lean mice (Example 1.1); parameters: Plasma glucose AUC Mean: dose or concentration left out as unconfirmed
# Experimental: (§1) A vehicle control group was included in the study design. […] Blood samples were taken at various timepoints during the test and subsequently assessed for plasma glucose and insulin content.
# Mice were weighed on the day of arrival (Thursday) and singly housed upon arrival and throughout the study in polypropylene cages on a normal phase 12 h light-dark cycle (lights on 07:00). Cages contained sawdust, red acrylic house, red acrylic tunnel, sizzlenest and nestlet at a temperature of 21±4° C. Upon arrival, mice were weighed and given wet mash to aid recovery from transport. Mice were weighed the following day and on the Monday of the following week.
# Experimental Procedures: Animals underwent a three-day handling phase, which commenced five days after arrival. On the final day of handling the mice were dosed orally once with vehicle. At the start of the handling phase, animals were weighed (to the nearest 0.1 g using an electronic top-pan balance) and allocated into 6 weight-matched treatment groups by a Statistician. On the day of baseline dosing, mice were fasted for approximately 16 hours to a timed schedule, beginning at 16:45. The mice were placed into individual clean cages with access to water, but not food. The following morning the mice were moved to a separate room which was maintained with the same environmental conditions and underwent an OGTT. […] Five minutes later, the mice in groups A, C, D, E and F were dosed by the oral route (30 minutes pre-glucose). […] All mice were given an oral glucose load of D-glucose at a dose of 2.0 g/kg (400 mg/mL solution; dose volume 5 mL/kg). Further blood samples (30 µl) were taken 3 minutes before glucose administration (B2) and at 15 (20 µl), 30 (20 µl), 60 (25 µl) and 120 (25 µl) minutes post glucose administration. All blood samples were collected into lithium heparinised tubes (Sarstedt Microvette CB300LH) and plasma separated by centrifugation to produce a single aliquot of plasma which was frozen (-80° C.) and subsequently assayed for glucose (Thermoelectron infinity glucose reagent, TR15421) and insulin (Alpco mouse ultrasensitive insulin kit 80 INSMSU-E10).
# Upon completion of the OGTT, all animals were humanely killed by a Schedule 1 method (exposure to a rising concentration of CO2 with confirmation of death by cervical dislocation). A terminal blood sample was taken from groups A, C, D, E and F only by cardiac puncture into a lithium heparin-coated tube (Sarstedt CB300LH) and the plasma separated by centrifugation.
# [2] = system: male db/db mice; assay: Acute oral glucose tolerance test (OGTT), plasma glucose and insulin, diabetic db/db mice (Example 1.2)
# Experimental: as §1
# Mice were weighed on the day of arrival (Thursday) and group housed in polypropylene cages on a normal phase 12 h light-dark cycle (lights on 07:00). Cages contained sawdust, red house, red tunnel, Sizzlenest and nestlet at a temperature of 24±2° C. Upon arrival, mice were weighed and given wet mash to aid recovery from transport. Mice were weighed the following day and on the Monday of the following week.
# Experimental Procedures: Animals underwent a three-day handling phase, which commenced five days after arrival. On the final day of handling the mice were dosed orally once with vehicle. At the start of the handling phase, animals were weighed (to the nearest 0.1 g using an electronic top-pan balance) and allocated into 6, weight matched treatment groups by a Statistician. On the day of baseline dosing, mice were fasted for approximately 16 hours to a timed schedule, beginning at 16:45. The mice were placed into individual clean cages with access to water, but not food. The following morning the mice were moved to a separate room which was maintained with the same environmental conditions and underwent an OGTT. […] Five minutes later, the mice in groups A, C, D, E and F were dosed by the oral route (30 minutes pre-glucose). […] All mice were given an oral glucose load of D-glucose at a dose of 2.0 g/kg (400 mg/mL solution; dose volume 5 mL/kg). Further blood samples (30 µl) were taken 3 minutes before glucose administration (B2) and at 15 (20 µl), 30 (20 µl), 60 (25 µl) and 120 (25 µl) minutes post glucose administration. All blood samples were collected into lithium heparinised tubes (Sarstedt Microvette CB300LH) and plasma separated by centrifugation to produce a single aliquot of plasma which was frozen (-80° C.) and subsequently assayed for glucose (Thermoelectron infinity glucose reagent, TR15421) and insulin (Alpco mouse ultrasensitive insulin kit 80 INSMSU-E10).
# Upon completion of the OGTT, all animals were humanely killed by a Schedule 1 method (exposure to a rising concentration of CO2 with confirmation of death by cervical dislocation). A terminal blood sample was taken from groups A, C, D, E and F only by cardiac puncture into a lithium heparin-coated tube (Sarstedt CB300LH) and the plasma separated by centrifugation. A single plasma aliquot (approximately 100 µl) was stored frozen prior to shipment of the compound to Charles River Laboratories, USA.
# [3] = system: lean, fasted, male CD1 mice; assay: Acute intravenous glucose tolerance test (IVGTT), plasma glucose and insulin (Example 6)
# Experimental: as §1
# Via a lateral tail vein, a baseline blood sample (B1; 30 µl) was taken from all animals prior to vehicle or drug treatment. Five minutes later, mice were dosed with Treatment 1 detailed by the oral route (see above table; approx. 30 minutes pre-glucose). Thirty minutes later, mice were dosed with Treatment 2 by the intravenous route (by a lateral tail vein). […] A B2 sample (30 µl) was also taken briefly before glucose administration. All blood samples (from the tail vein) were collected into lithium heparinised tubes (Sarstedt Microvette CB300LH) and plasma separated by centrifugation to produce a single aliquot of plasma which was frozen (approx. -80° C.) and subsequently assayed for glucose (Thermoelectron infinity glucose reagent, TR15421) and insulin (Alpco Ultrasensitive mouse insulin ELISA) as single replicates.
# [4] = 15 minutes, Exendin-4 1 µg/kg ip
# [5] = 30 minutes, Exendin-4 1 µg/kg ip
# [6] = 60 minutes, Exendin-4 1 µg/kg ip
# [7] = 120 minutes, Exendin-4 1 µg/kg ip
# [8] = AUC above baseline (0-60 minutes), Exendin-4 1 µg/kg ip
# [9] = AUC above baseline (0-120 minutes), Exendin-4 1 µg/kg ip
# [10] = Area under curve (0-60 minutes), Exendin-4 1 µg/kg ip
# [11] = Area under curve (0-120 minutes), Exendin-4 1 µg/kg ip
# [12] = Area under curve (0-120 minutes), Exendin-4 ip
# [13] = Post-treatment baseline (B2), Exendin-4 1 µg/kg ip
# [14] = 15 minutes, Exendin-4 300 µg/kg ip
# [15] = 30 minutes, Exendin-4 300 µg/kg ip
# [16] = 60 minutes, Exendin-4 300 µg/kg ip
# [17] = 120 minutes, Exendin-4 300 µg/kg ip
# [18] = AUC above baseline (0-60 minutes), Exendin-4 300 µg/kg ip
# [19] = AUC above baseline (0-120 minutes), Exendin-4 300 µg/kg ip
# [20] = Area under curve (0-60 minutes), Exendin-4 300 µg/kg ip
# [21] = Area under curve (0-60 minutes), Exendin-4 300 µpg/kg ip
# [22] = Area under curve (0-120 minutes), Exendin-4 300 µg/kg ip
# [23] = Area under curve (0–120 minutes), Exendin-4 300 µg/kg ip
# [24] = Post-treatment baseline (B2), Exendin-4 300 µg/kg ip
# [25] = 40 µg/kg iv group, Post-treatment baseline (B2)
# [26] = 40 µg/kg iv with Glucose 1 g/kg
# [27] = 40 µg/kg iv with Glucose 1 g/kg, 5 minutes
# [28] = 40 µg/kg iv with Glucose 1 g/kg, 10 minutes
# [29] = 40 µg/kg iv with Glucose 1 g/kg, 30 minutes
# [30] = 40 µg/kg iv with Glucose 1 g/kg, 60 minutes
substance,measurement,setting,value
Exendin-4: GLP 1 receptor agonist utilised as a positive control,Plasma glucose % of vehicle,[1]; [4],65.9%
same,Plasma glucose Mean,[1]; [4],15.13 mM
same,Plasma insulin % of vehicle,[1]; [4],154.4%
same,Plasma insulin Mean,[1]; [4],1.92 ng/mL
same,Plasma glucose % of vehicle,[1]; [5],53.3%
same,Plasma glucose Mean,[1]; [5],12.81 mM
same,Plasma insulin % of vehicle,[1]; [5],110.3%
same,Plasma insulin Mean,[1]; [5],1.10 ng/mL
same,Plasma glucose % of vehicle,[1]; [6],58.4%
same,Plasma glucose Mean,[1]; [6],8.56 mM
same,Plasma insulin % of vehicle,[1]; [6],73.1%
same,Plasma insulin Mean,[1]; [6],0.37 ng/mL
same,Plasma glucose % of vehicle,[1]; [7],74.8%
same,Plasma glucose Mean,[1]; [7],7.46 mM
same,Plasma insulin % of vehicle,[1]; [7],63.5%
same,Plasma insulin Mean,[1]; [7],0.27 ng/mL
same,Plasma glucose AUCB2 Difference from vehicle,[1]; [8],-8.32 mM·h
same,Plasma glucose AUCB2 Mean,[1]; [8],1.49 mM·h
same,Plasma insulin AUC above baseline Difference from vehicle,[1]; [8],0.02 ng·h/mL
same,Plasma insulin AUC above baseline Mean,[1]; [8],0.72 ng·h/mL
same,Plasma glucose AUCB2 Difference from vehicle,[1]; [9],-12.99 mM·h
same,Plasma glucose AUCB2 Mean,[1]; [9],-0.58 mM·h
same,Plasma insulin AUC above baseline Difference from vehicle,[1]; [9],-0.28 ng·h/mL
same,Plasma insulin AUC above baseline Mean,[1]; [9],0.76 ng·h/mL
same,Plasma glucose AUC % of vehicle,[1]; [10],61.5%
same,Plasma insulin AUC % of vehicle,[1]; [10],125.7%
same,Plasma insulin AUC Mean,[1]; [10],1.06 ng·h/mL
same,Plasma insulin AUC % of vehicle,[1]; [11],110.9%
same,Plasma insulin AUC Mean,[1]; [11],1.48 ng·h/mL
same,Plasma glucose AUC % of vehicle,[1]; [12],63.6%
same,Plasma glucose AUC Mean,[1]; [12],20.44 mM·h
same,plasma glucose vs vehicle,"[1]; Exendin-4 1 µg/kg ip 10 minutes before glucose load, all timepoints post-glucose",statistically significant (p<0.01) reduction
same,Plasma glucose % of vehicle,[1]; [13],111.4%
same,Plasma glucose Mean,[1]; [13],10.66 mM
same,Plasma insulin % of vehicle,[1]; [13],221.2%
same,Plasma insulin Mean,[1]; [13],0.34 ng/mL
same,Plasma glucose % of vehicle,[2]; [14],39.5%
same,Plasma glucose Mean,[2]; [14],20.37 mM
same,Plasma insulin % of vehicle,[2]; [14],176.4%
same,Plasma insulin Mean,[2]; [14],11.33 ng/mL
same,Plasma glucose % of vehicle,[2]; [15],34.7%
same,Plasma glucose Mean,[2]; [15],19.07 mM
same,Plasma insulin % of vehicle,[2]; [15],228.5%
same,Plasma insulin Mean,[2]; [15],9.42 ng/mL
same,Plasma glucose % of vehicle,[2]; [16],32.9%
same,Plasma glucose Mean,[2]; [16],12.91 mM
same,Plasma insulin % of vehicle,[2]; [16],210.5%
same,Plasma insulin Mean,[2]; [16],8.95 ng/mL
same,Plasma glucose % of vehicle,[2]; [17],52.4%
same,Plasma glucose Mean,[2]; [17],10.71 mM
same,Plasma insulin % of vehicle,[2]; [17],238.7%
same,Plasma insulin Mean,[2]; [17],9.87 ng/mL
same,Plasma glucose AUC above baseline Difference from vehicle,[2]; [18],-28.49 mM·h
same,Plasma glucose AUC above baseline Mean,[2]; [18],-1.09 mM·h
same,Plasma insulin AUC above baseline Difference from vehicle,[2]; [18],-0.08 ng·h/mL
same,Plasma insulin AUC above baseline Mean,[2]; [18],0.89 ng·h/mL
same,Plasma glucose AUC above baseline Difference from vehicle,[2]; [19],-47.99 mM·h
same,Plasma glucose AUC above baseline Mean,[2]; [19],-8.04 mM·h
same,Plasma insulin AUC above baseline Difference from vehicle,[2]; [19],-0.35 ng·h/mL
same,Plasma insulin AUC above baseline Mean,[2]; [19],0.98 ng·h/mL
same,Plasma insulin AUC % of vehicle,[2]; [20],213.0%
same,Plasma insulin AUC Mean,[2]; [20],9.93 ng·h/mL
same,Plasma glucose AUC % of vehicle,[2]; [21],38.8%
same,Plasma glucose AUC Mean,[2]; [21],17.77 mM·h
same,Plasma insulin AUC % of vehicle,[2]; [22],223.1%
same,Plasma insulin AUC Mean,[2]; [22],19.34 ng·h/mL
same,Plasma glucose AUC % of vehicle,[2]; [23],39.6%
same,Plasma glucose AUC Mean,[2]; [23],30.22 mM·h
same,plasma glucose vs vehicle,"[2]; Exendin-4 300 µg/kg ip, all timepoints post-glucose",statistically significant (p<0.001) reduction
same,Plasma glucose Mean,[2]; [24],17.81 mM
same,Plasma insulin % of vehicle,[2]; [24],227.2%
same,Plasma insulin Mean,[2]; [24],8.99 ng/mL
same,Plasma glucose % of vehicle,[3]; [25],98.6%
same,Plasma glucose Mean,[3]; [25],9.30 mM
same,Plasma insulin % of vehicle,[3]; [25],95.1%
same,Plasma insulin Mean,[3]; [25],0.17 ng/mL
same,"Plasma glucose - AUC above baseline (AUCB2) (0-60 minutes), Mean",[3]; [26],3.22 mM·h
same,"Plasma glucose AUC (0-60 minutes), % of vehicle",[3]; [26],73.5%
same,"Plasma glucose AUC, Area under curve (0-60 minutes), Mean",[3]; [26],12.65 mM·h
same,"Plasma glucose AUCB2 (0-60 minutes), Difference from vehicle",[3]; [26],-4.43 mM·h
same,"Plasma insulin - AUC above baseline (AUCB2) (0-60 minutes), Mean",[3]; [26],0.73 ng·h/mL
same,"Plasma insulin - Area under curve AUC (0-60 minutes), Mean",[3]; [26],0.93 ng·h/mL
same,"Plasma insulin AUC (0-60 minutes), % of vehicle",[3]; [26],218.8%
same,"Plasma insulin AUCB2 (0-60 minutes), Difference from vehicle",[3]; [26],0.48 ng·h/mL
same,Plasma glucose % of vehicle,[3]; [27],92.6%
same,Plasma glucose Mean,[3]; [27],28.43 mM
same,Plasma insulin % of vehicle,[3]; [27],347.3%
same,Plasma insulin Mean,[3]; [27],1.99 ng/mL
same,Plasma glucose % of vehicle,[3]; [28],89.4%
same,Plasma glucose Mean,[3]; [28],22.15 mM
same,Plasma insulin % of vehicle,[3]; [28],327.2%
same,Plasma insulin Mean,[3]; [28],1.84 ng/mL
same,Plasma glucose % of vehicle,[3]; [29],59.0%
same,Plasma glucose Mean,[3]; [29],8.35 mM
same,Plasma insulin % of vehicle,[3]; [29],149.8%
same,Plasma insulin Mean,[3]; [29],0.57 ng/mL
same,Plasma glucose % of vehicle,[3]; [30],57.8%
same,Plasma glucose Mean,[3]; [30],6.36 mM
same,Plasma insulin % of vehicle,[3]; [30],117.2%
same,Plasma insulin Mean,[3]; [30],0.42 ng/mL
same,plasma insulin vs vehicle,"[3]; Exendin-4 40 µg/kg iv, 5, 10 and 30 minutes post glucose load",statistically significant increase
same,Plasma insulin peak,"[3]; Exendin-4 40 µg/kg iv, 5 minutes post glucose load",1.99 ng/mL
